# Legend:
# HSCs = settings: rat HSCs 24 h; LPS 15 ng/ml, TGFβ 2 ng/ml, calcitriol 10 nM; control = 1
# Experimental: (§1) For Illumina microarray analysis, Illumina TotalPrep RNA Amplification Kit (Ambion; Catalog # IL1791) was used with the manufacturer's instructions for the RNA amplification. […] Essentially, biotinylated cRNA was prepared according to the manufacturer's directions starting with 200 ng total RNA. Hybridization to the Illumina Sentrix RatRef-12 v.1 and Mouse RefSeq version 2 Expression BeadChips (Illumina, Inc., San Diego, Calif.), washing and scanning were performed according to the Illumina BeadStation 500× manual (revision C). […] RNA is isolated using Trizol and the quality/integrity of the total RNA verified using a Bioanalyzer (Agilent).
# (§2) Microarray experiments were repeated two times with RNA from two experiments where HSCs were isolated from two different rats and for each condition triplicate samples were used. The “Detection Score” was used to determine expression using the Illumina platform. It is a statistical measure in the BeadStudio software (version 1.5.0.34), which is computed based on the Z-value of a gene relative to the Z-value of the negative controls. The Illumina data were adjusted (“normalized”) using a cubic spline function. […] The expression difference score, DiffScore, takes into account background noise and sample variability. […] Illumina expression arrays utilize gene-specific 50-mer oligonucleotide probes with an average of 30 replicates of each probe bead per individual array.
# Two different HSCs from different rats were used for the lumina microarray analysis. […] Values are expressed as fold change relative to control cells treated with vehicle alone.
# VDR = biological target: T1, VDR (Homo sapiens, UniProt P11473); test: Real-time qPCR of CYP24A1 in human LX-2 cell line; format: cell-based; settings: LX-2 cells overnight; 1,α25(OH)2D3 1 nM, TGF β1 100 pM
# T1 construct: endogenous in cells; host or cells: human LX-2 hepatic stellate cell line
# T1 sequence (P11473 1-427): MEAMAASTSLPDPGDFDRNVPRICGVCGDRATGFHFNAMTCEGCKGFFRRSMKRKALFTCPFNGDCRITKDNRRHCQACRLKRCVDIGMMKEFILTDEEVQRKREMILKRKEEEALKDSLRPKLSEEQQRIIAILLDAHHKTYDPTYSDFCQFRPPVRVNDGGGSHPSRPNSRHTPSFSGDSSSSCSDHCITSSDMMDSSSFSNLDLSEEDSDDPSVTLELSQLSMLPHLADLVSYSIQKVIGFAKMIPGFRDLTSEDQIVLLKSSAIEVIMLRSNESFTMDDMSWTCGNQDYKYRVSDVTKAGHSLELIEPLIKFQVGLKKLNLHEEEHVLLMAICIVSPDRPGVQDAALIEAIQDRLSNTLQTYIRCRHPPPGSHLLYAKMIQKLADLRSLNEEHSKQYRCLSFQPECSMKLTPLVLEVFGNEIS
# Experimental: Human LX-2 cells were grown to 50% confluence in DMEM with 10% FBS in 6-Well plates.
# For qRT-PCR, 500 ng of deoxyribonuclease-treated total RNA was reverse transcribed into cDNA using SuperScript™ III reverse transcriptase essentially as described by the manufacturer (Invitrogen). Quantification of gene of interest mRNA was performed using a Rotor-Gene, RG 6000 (Corbett Research). […] Human B2M primers were from Applied Biosystems.
# TGFβ signaling is the key mediator in hepatic fibrogenesis, triggering the transition of HSCs into myofibroblast-like cells and thereby stimulating synthesis of ECM proteins. Thus, TGFβ1 is produced locally in the organ as part of the fibrotic process It has been previously reported that TGFB signaling can influence the activity of VDR-dependent genes, as depicted in (FIG. 8A). In this model, TGFβ activation results in SMAD3 phosphorylation, inducing its translocation into the nucleus where it associates with the ligand bound VDR complex. Phosphorylated SMAD3 acts as a co-activator in the VDR/vitaminD3 complex enhancing the transcriptional potential of VDR on target genes. To understand the interplay between TGFB and VDR signaling pathways, the effects of TGFβ on the well characterized VDR gene target Cyp24α1 were examined.
# primary HSCs = test: Illumina array: TGFβ1-treated primary rat HSCs with vitamin D3 (Table 4); settings: rat HSCs 24 h; TGFβ1 100 pM, vitamin D3 1 nM
# Experimental: as §1, §2
# The Illumina platform described above was used to identify genome-wide effects of vitamin D3-activated VDR on TGFβ signaling in primary rat HSCs. Isolated primary HSCs were cultured on plastic tissue culture plates for 40 hours prior to treatment with or without vitamin D3 (1 nM) in the presence or absence of TGFβ1 (100 pM) for 24 hours. Cells were then harvested, total RNA extracted, and biotin labeled cRNA was prepared for hybridization to an Illumina Rat RefSeq version 1 genome array. […] The data generated from these arrays was processed using Illumina BeadStudio software to identify gene expression changes between the different samples. The vitamin D3 mediated changes on TGFβ1 signaling were identified by comparing TGFβ1 and co-treated TGFβ1/vitamin D3 samples.
# hepatocytes = test: Illumina Sentrix arrays: hepatocytes treated with TGF-β1 and calcitriol (Tables 9 and 10); format: cell-based; settings: rat hepatocytes, TGF-β1 2 ng/mL, 24 h
# Experimental: Cells were cultured and treated as described in Example 14. Gene expression was determined using Illumina Sentrix expression arrays, rat version 1, according to the manufacturer's instructions.
# Triplicate biologic replicates were assayed for each treatment.
substance,measurement,setting,value
TGF-β1: transforming growth factor beta 1; human recombinant from Sigma-Aldrich T7039,Ccl5 gene expression,HSCs,0.957 fold change
same,Ccl12 gene expression,HSCs,1.167 fold change
same,Ccl20 gene expression,HSCs,0.999 fold change
same,Col1a1 gene expression,HSCs,3.014 fold change
same,Col1a2 gene expression,HSCs,2.256 fold change
same,Col3a1 gene expression,HSCs,1.878 fold change
same,Col5a1 gene expression,HSCs,2.322 fold change
same,Col5a2 gene expression,HSCs,1.583 fold change
same,Col6a3 gene expression,HSCs,1.611 fold change
same,Col8a1 gene expression,HSCs,2.240 fold change
same,Csf2 gene expression,HSCs,0.803 fold change
same,Ctgf gene expression,HSCs,1.919 fold change
same,Cx3cl1 gene expression,HSCs,0.864 fold change
same,Cxcl5 gene expression,HSCs,0.971 fold change
same,Cxcl9 gene expression,HSCs,0.875 fold change
same,Cxcl11 gene expression,HSCs,1.05 fold change
same,Icam1 gene expression,HSCs,1.371 fold change
same,Il1a gene expression,HSCs,0.517 fold change
same,Il1b gene expression,HSCs,0.322 fold change
same,Il6 gene expression,HSCs,0.791 fold change
same,Il10 gene expression,HSCs,0.837 fold change
same,Mmp7 gene expression,HSCs,1.692 fold change
same,Mmp10 gene expression,HSCs,1.856 fold change
same,Mmp13 gene expression,HSCs,1.342 fold change
same,Smad2 gene expression,HSCs,1.381 fold change
same,Smad3 gene expression,HSCs,1.116 fold change
same,Smad4 gene expression,HSCs,1.325 fold change
same,Tgfb1 gene expression,HSCs,1.502 fold change
same,Tgfbr1 gene expression,HSCs,1.317 fold change
same,Timp1 gene expression,HSCs,1.026 fold change
same,Timp2 gene expression,HSCs,1.823 fold change
same,Tlr2 gene expression,HSCs,1.092 fold change
same,Tlr4 gene expression,HSCs,1.349 fold change
same,Tnf gene expression,HSCs,1.078 fold change
same,Tnfrsf5 gene expression,HSCs,1.339 fold change
same,Tnfrsf14 gene expression,HSCs,1.373 fold change
same,Vcam1 gene expression,HSCs,1.482 fold change
same,"CYP24a1 gene expression (QPCR, normalized to 36B4)",VDR,no effect
same,Mmp10 gene change,primary HSCs,↓
same,Mmp13 gene change,primary HSCs,N/C
same,Abcb4 gene expression,hepatocytes,96.93
same,Abcg2 gene expression,hepatocytes,913.91
same,Abcg4 gene expression,hepatocytes,95.82
same,Ccl3 gene expression,hepatocytes,540.53
same,Ccl4 gene expression,hepatocytes,380.06
same,Ccl7 gene expression,hepatocytes,1303.89
same,Ccl12 gene expression,hepatocytes,368.02
same,Cd44 gene expression,hepatocytes,680.16
same,Cxcr4 gene expression,hepatocytes,164.68
same,Cyp1a2 gene expression,hepatocytes,135.53
same,Cyp2d1 gene expression,hepatocytes,147.68
same,Cyp2d5 gene expression,hepatocytes,338.34
same,Cyp3a23/3a1 gene expression,hepatocytes,380.28
same,Gstm1 gene expression,hepatocytes,2230.15
same,Gstm2 gene expression,hepatocytes,715.15
same,Gsto1 gene expression,hepatocytes,1364.06
same,Il1a gene expression,hepatocytes,675.41
same,Il1b gene expression,hepatocytes,1551.37
same,Jak2 gene expression,hepatocytes,669.28
same,Mmp9 gene expression,hepatocytes,159.27
same,Nos2 gene expression,hepatocytes,90.7
same,Slc7a6os gene expression,hepatocytes,241.22
same,Slc25a4 gene expression,hepatocytes,671.16
same,Slc25a19 gene expression,hepatocytes,195.9
same,Slc28a1 gene expression,hepatocytes,50.32
same,Slc28a2 gene expression,hepatocytes,157.29
same,Slc35a4 gene expression,hepatocytes,157.88
same,Slc37a4 gene expression,hepatocytes,246.55
same,Tlr2 gene expression,hepatocytes,978.98
same,Tlr7 gene expression,hepatocytes,110.03
same,Ugt2b5 gene expression,hepatocytes,155.32
same,cyp2a1 gene expression,hepatocytes,216.95
same,cyp2c22 gene expression,hepatocytes,2009.34
same,cyp4a10 gene expression,hepatocytes,91.71
same,cyp24a1 gene expression,hepatocytes,56.9
same,slc25a1 gene expression,hepatocytes,1375.94
same,slc25a5 gene expression,hepatocytes,2038.43
same,slc26a1 gene expression,hepatocytes,181.21
same,slc39a1 gene expression,hepatocytes,489.71

# From patent US8318708B2, “Use of vitamin D receptor agonists, ligands, and precursors to treat pancreatic fibrosis” (Salk Institute for Biological Studies, priority 2007, dated 2012)
